What is called IC50 is the concentration that inhibits the measured activity by half. Low readings indicate greater potency, high ones weaker potency.

Where a SMILES comes first, the peptide text is derived from it.

This is an account of results in paper PMC8138313, “Identification, Selection and Immune Assessment of Liver Stage CD8 T Cell Epitopes From Plasmodium falciparum” (Frontiers in Immunology, 2021).

Some targets named below: HLA A*0101 (Homo sapiens, UniProt P04439, A114D/A174V/A182V/D101N/D185E/E176A/E190D/L180R/Q94H/R68K/S129P/T187R/V100A/V91M/W191G); HLA A*0301 (Homo sapiens, UniProt P04439); HLA B*4402 (Homo sapiens, UniProt P01889, A223V/A65T/A93T/A95T/D201E/D98Y/E176V/E187L/E204Q/E69K/G107R/H137Y/K202T/L105A/L119I/N104T/N87E/Q56L/Q94N/R106L/R155S/R180D/S101N/S121R/S35A/S48T/T118I/V36M/W191S/Y140D/Y91S); HLA A*0201 (Homo sapiens, UniProt P04439, D140Y/D185E/D98H/E176V/E277Q/G131W/G231S/I119V/I121R/I166T/I218V/L300P/L318F/N151K/N90K/P208A/P217A/Q86G/Q94H/R138H/R169H/T345S); HLA B*0702 (Homo sapiens, UniProt P01889); HLA A*2402 (Homo sapiens, UniProt P04439, D101N/D140Y/D185E/E176V/E190D/F33S/G103R/G107R/I119L/I121M/I306V/K335N/L105A/L180Q/L300P/N151K/N90K/Q86E/Q94H/R106L/R138H/R89G/T104I/T345S/V100E/W191G/Y123F).

Experiment in all cases: HLA class I binding assay (cell-free competition, fluorescence polarization)

For `C[C@H](N)C(=O)N[C@@H](CO)C(=O)N[C@@H](Cc1ccccc1)C(=O)N[C@@H](CO)C(=O)N[C@@H](C)C(=O)N[C@@H](CO)C(=O)N[C@H](C(=O)NCC(=O)N[C@@H](Cc1ccc(O)cc1)C(=O)O)[C@@H](C)O` (H-ASFSASTGY-OH), the IC50 was above 1000 µM on HLA A*0101, 2.37 µM at HLA A*0301 and 31.7 µM on HLA B*4402.

`CC(C)[C@H](NC(=O)[C@H](CCC(=O)O)NC(=O)[C@H](Cc1ccccc1)NC(=O)[C@@H](NC(=O)[C@H](CC(=O)O)NC(=O)[C@@H](N)CC(=O)O)[C@@H](C)O)C(=O)N[C@@H](Cc1ccc(O)cc1)C(=O)N[C@@H](CO)C(=O)N[C@@H](CCC(=O)O)C(=O)N[C@@H](Cc1ccc(O)cc1)C(=O)O` (H-DDTFEVYSEY-OH; N-terminus assumed): the IC50 at HLA A*0101 and at HLA B*4402 was above 1000 µM throughout.

In the case of `CC[C@H](C)[C@H](NC(=O)CNC(=O)[C@H](CO)NC(=O)[C@H](CC(N)=O)NC(=O)[C@H](CC(=O)O)NC(=O)[C@@H](N)Cc1ccccc1)C(=O)N[C@@H](CO)C(=O)N[C@@H](CC(C)C)C(=O)N[C@@H](CC(C)C)C(=O)O` (H-FDNSGISLL-OH), the figures for the half-inhibitory concentration (IC50) on HLA A*0201 and at HLA B*4402 were 229 µM and above 1000 µM, respectively.

Take `CC(C)C[C@H](NC(=O)[C@H](CO)NC(=O)[C@@H]1CCCN1C(=O)[C@H](CCCCN)NC(=O)[C@H](CC(N)=O)NC(=O)[C@H](CC(C)C)NC(=O)[C@H](CC(C)C)NC(=O)[C@H](CCCCN)NC(=O)[C@@H]1CCCN1C(=O)[C@@H](N)Cc1ccccc1)C(=O)O` (H-FPKLLNKPSL-OH): the 50% inhibitory concentration (IC50) on HLA B*0702 came to 73.1 µM.

At HLA B*0702, `N=C(N)NCCC[C@H](NC(=O)[C@H](Cc1ccc(O)cc1)NC(=O)[C@H](CCCCN)NC(=O)[C@@H]1CCCN1C(=O)[C@@H](N)Cc1c[nH]cn1)C(=O)N[C@@H](CC(N)=O)C(=O)N[C@@H](Cc1ccccc1)C(=O)N[C@@H](CCCCN)C(=O)N[C@@H](Cc1ccccc1)C(=O)O` (H-HPKYRNFKF-OH) returned an IC50 of 0.336 µM.

As to `CC[C@H](C)[C@H](NC(=O)[C@H](CC(N)=O)NC(=O)[C@@H](NC(=O)[C@@H]1CCCN1C(=O)[C@H](CCSC)NC(=O)[C@@H]1CCCN1C(=O)[C@@H](N)Cc1c[nH]cn1)[C@@H](C)CC)C(=O)N[C@@H](CCCCN)C(=O)N[C@@H](CC(C)C)C(=O)O` (H-HPMPINIKL-OH), the half-maximal inhibitory concentration (IC50) on HLA B*0702 was 0.168 µM.

At HLA B*0702, `CC[C@H](C)[C@H](N)C(=O)N1CCC[C@H]1C(=O)N1CCC[C@H]1C(=O)N[C@@H](CCC(N)=O)C(=O)N[C@H](C(=O)N[C@@H](Cc1ccccc1)C(=O)N[C@@H](CC(=O)O)C(=O)N[C@@H](Cc1ccc(O)cc1)C(=O)N1CCC[C@H]1C(=O)N[C@H](C(=O)O)[C@@H](C)CC)C(C)C` (H-IPPQVFDYPI-OH) had an IC50 of 245 µM.

`N=C(N)NCCC[C@H](NC(=O)[C@H](Cc1c[nH]c2ccccc12)NC(=O)[C@H](Cc1ccccc1)NC(=O)[C@H](CC(N)=O)NC(=O)[C@@H]1CCCN1C(=O)[C@@H](N)CCCCN)C(=O)N[C@@H](Cc1ccccc1)C(=O)N[C@@H](CCC(N)=O)C(=O)N[C@@H](CC(=O)O)C(=O)N[C@@H](Cc1ccc(O)cc1)C(=O)O` (H-KPNFWRFQDY-OH; N-terminus assumed): the IC50 on HLA B*0702 was above 1000 µM.

The compound `CC(C)C[C@H](NC(=O)[C@H](CC(=O)O)NC(=O)[C@H](CCCNC(=N)N)NC(=O)[C@H](CCCNC(=N)N)NC(=O)[C@H](CC(=O)O)NC(=O)[C@H](CO)NC(=O)[C@H](CC(N)=O)NC(=O)[C@H](CC(C)C)NC(=O)[C@@H](N)CC(C)C)C(=O)O` (H-LLNSDRRDL-OH) yielded an IC50 on HLA B*0702 of 0.2 µM.

`CC[C@H](C)[C@H](NC(=O)[C@@H]1CCCN1C(=O)[C@@H](N)CC(C)C)C(=O)N[C@@H](CCC(=O)O)C(=O)N1CCC[C@H]1C(=O)N[C@@H](CCCCN)C(=O)N[C@@H](CCCCN)C(=O)N[C@@H](CC(C)C)C(=O)N[C@@H](C)C(=O)O` (H-LPIEPKKLA-OH) had an IC50 at HLA B*0702 of 561 µM.

On to `CC[C@H](C)[C@H](NC(=O)[C@H](Cc1ccccc1)NC(=O)[C@H](CCC(=O)O)NC(=O)[C@@H](NC(=O)[C@H](CC(=O)O)NC(=O)[C@H](CCC(=O)O)NC(=O)[C@H](CC(N)=O)NC(=O)[C@H](CCC(=O)O)NC(=O)[C@@H](N)CCSC)C(C)C)C(=O)O` (H-MENEDVEFI-OH), for which the IC50 on HLA B*4402 is 36.9 µM.

The compound `CC[C@H](C)[C@H](NC(=O)[C@H](CCC(=O)O)NC(=O)[C@H](CCC(=O)O)NC(=O)[C@@H](N)CC(N)=O)C(=O)N[C@H](C(=O)N[C@@H](CC(=O)O)C(=O)N[C@@H](CC(C)C)C(=O)N[C@@H](CC(C)C)C(=O)N[C@@H](CC(N)=O)C(=O)N[C@@H](CC(C)C)C(=O)O)[C@@H](C)CC` (H-NEEIIDLLNL-OH) returned a 50% inhibitory concentration (IC50) on HLA B*4402 of 433 µM.

`C[C@@H](O)[C@H](NC(=O)[C@H](CC(N)=O)NC(=O)[C@H](CC(N)=O)NC(=O)[C@H](CCC(=O)O)NC(=O)[C@@H](N)CC(N)=O)C(=O)N[C@H](C(=O)N[C@@H](Cc1ccc(O)cc1)C(=O)N[C@@H](CCC(N)=O)C(=O)N[C@@H](Cc1ccc(O)cc1)C(=O)O)[C@@H](C)O` (H-NENNTTYQY-OH) yielded an IC50 on HLA B*4402 of 18.4 µM.

Regarding `CC(C)C[C@H](NC(=O)[C@H](CCC(N)=O)NC(=O)[C@@H](NC(=O)[C@@H]1CCCN1C(=O)[C@@H](N)CC(N)=O)C(C)C)C(=O)N[C@@H](CCCCN)C(=O)N[C@@H](CO)C(=O)N[C@@H](CCCCN)C(=O)N[C@@H](Cc1ccccc1)C(=O)O` (H-NPVQLKSKF-OH), the half-maximal inhibitory concentration (IC50) on HLA B*0702 is 59.6 µM.

As for `CC(C)C[C@H](NC(=O)[C@H](CC(N)=O)NC(=O)[C@H](CC(C)C)NC(=O)[C@@H](N)CCCNC(=N)N)C(=O)N[C@@H](Cc1ccccc1)C(=O)N[C@@H](CS)C(=O)N[C@@H](Cc1ccccc1)C(=O)N[C@@H](CO)C(=O)N[C@@H](Cc1ccccc1)C(=O)O` (H-RLNLFCFSF-OH), the 50% inhibitory concentration (IC50) on HLA A*2402 is 11 µM; at HLA B*4402, above 1000 µM.

Consider `CC(C)C[C@H](NC(=O)[C@H](Cc1ccccc1)NC(=O)[C@H](CO)NC(=O)[C@H](Cc1ccccc1)NC(=O)[C@H](CS)NC(=O)[C@H](Cc1ccccc1)NC(=O)[C@H](CC(C)C)NC(=O)[C@H](CC(N)=O)NC(=O)[C@H](CC(C)C)NC(=O)[C@@H](N)CCCNC(=N)N)C(=O)O` (H-RLNLFCFSFL-OH), for which the IC50 at HLA A*0201 was found to be 161 µM; on HLA A*0301 it was 6.12 µM; on HLA B*4402 it was 421 µM.

`CC[C@H](C)[C@H](NC(=O)[C@H](CC(N)=O)NC(=O)[C@@H](N)CCCNC(=N)N)C(=O)N[C@H](C(=O)N[C@@H](CO)C(=O)N[C@@H](CCCCN)C(=O)N[C@@H](Cc1c[nH]cn1)C(=O)N[C@H](C(=O)N[C@@H](CO)C(=O)N[C@H](C(=O)O)C(C)C)[C@@H](C)O)[C@@H](C)CC` (H-RNIISKHTSV-OH) showed a concentration for half-maximal inhibition (IC50) at HLA B*0702 of 505 µM.

As to `C[C@@H](O)[C@H](NC(=O)[C@H](CC(N)=O)NC(=O)[C@H](Cc1ccc(O)cc1)NC(=O)[C@@H](NC(=O)[C@H](CO)NC(=O)[C@@H](NC(=O)[C@H](CO)NC(=O)[C@H](CCC(=O)O)NC(=O)[C@@H](N)CO)[C@@H](C)O)[C@@H](C)O)C(=O)O` (H-SESTSTYNT-OH), the half-maximal inhibitory concentration (IC50) on HLA B*4402 came to 103 µM.

Compound `CC[C@H](C)[C@H](NC(=O)[C@H](CC(C)C)NC(=O)[C@@H](NC(=O)[C@@H](N)CO)[C@@H](C)CC)C(=O)N[C@@H](CO)C(=O)N[C@@H](CCCNC(=N)N)C(=O)N[C@@H](CC(C)C)C(=O)N[C@H](C(=O)N[C@@H](CC(C)C)C(=O)O)[C@@H](C)O` (H-SILISRLTL-OH; N-terminus assumed) had an IC50 at HLA B*4402 above 1000 µM.

In the case of `CC(C)C[C@H](NC(=O)[C@H](Cc1ccccc1)NC(=O)[C@@H]1CCCN1C(=O)[C@H](Cc1c[nH]cn1)NC(=O)[C@H](CCCCN)NC(=O)[C@@H](N)CO)C(=O)N[C@@H](CCCCN)C(=O)N[C@@H](CO)C(=O)NCC(=O)N[C@@H](Cc1ccccc1)C(=O)O` (H-SKHPFLKSGF-OH; N-terminus assumed), on HLA B*4402, the IC50 is above 1000 µM.

As for `CSCC[C@H](NC(=O)[C@@H](NC(=O)[C@H](CC(=O)O)NC(=O)[C@H](Cc1c[nH]cn1)NC(=O)[C@@H]1CCCN1C(=O)[C@@H](N)CO)[C@@H](C)O)C(=O)N[C@@H](CCC(N)=O)C(=O)N[C@@H](CCCCN)C(=O)N[C@@H](CC(=O)O)C(=O)N[C@@H](CC(=O)O)C(=O)O` (H-SPHDTMQKDD-OH; N-terminus assumed), at HLA B*0702, the IC50 is above 1000 µM.

Turning to `CSCC[C@H](NC(=O)[C@H](CC(N)=O)NC(=O)[C@H](CCCCN)NC(=O)[C@H](CC(N)=O)NC(=O)[C@H](CCCCN)NC(=O)[C@H](Cc1ccccc1)NC(=O)[C@H](Cc1ccc(O)cc1)NC(=O)[C@H](CCC(=O)O)NC(=O)[C@@H](N)[C@@H](C)O)C(=O)O` (H-TEYFKNKNM-OH), on HLA B*4402, the half-maximal inhibitory concentration (IC50) came to 31.4 µM.

With `CC[C@H](C)[C@H](NC(=O)[C@@H](N)[C@@H](C)O)C(=O)N[C@@H](Cc1ccc(O)cc1)C(=O)NCC(=O)N[C@@H](CCCCN)C(=O)NCC(=O)NCC(=O)N[C@@H](Cc1ccccc1)C(=O)N[C@@H](CCC(N)=O)C(=O)N[C@@H](Cc1ccccc1)C(=O)O` (H-TIYGKGGFQF-OH), the IC50 on HLA B*0702 came out at 109 µM.

At HLA B*4402, `CC[C@H](C)[C@H](NC(=O)[C@H](CCCCN)NC(=O)CNC(=O)CNC(=O)[C@H](CC(C)C)NC(=O)[C@H](CCC(N)=O)NC(=O)[C@H](CO)NC(=O)[C@H](CCC(=O)O)NC(=O)[C@@H](N)Cc1ccc(O)cc1)C(=O)O` (H-YESQLGGKI-OH) displayed an IC50 of 66.3 µM.
